Reference: PubChem BioAssay (NCI)
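Grown in 96-well plates, cells were treated for 48 hours with each compound at five concentrations. Insufficient inhibition: endpoint recorded as highest concentration tested. The concentration for 50% growth inhibition is given as GI50. At the TGI there is no net growth.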

Experiments:
Experiment in all cases: NCI anticancer screen, dose series, 48 h
A498 renal = test system: A498 renal
COLO 205 colon = test system: COLO 205 colon
DU-145 prostate = test system: DU-145 prostate
HOP-62 NSCLC = test system: HOP-62 NSCLC
M14 melanoma = test system: M14 melanoma
MDA-MB-231 breast = test system: MDA-MB-231 breast
MDA-N = test system: MDA-N
SF-295 CNS = test system: SF-295 CNS
SK-MEL-28 melanoma = test system: SK-MEL-28 melanoma
T-47D breast = test system: T-47D breast
SR leukemia = test system: SR leukemia

SMILES | TGI (A498 renal) [µM] | TGI (COLO 205 colon) [µM] | TGI (DU-145 prostate) [µM] | TGI (HOP-62 NSCLC) [µM] | TGI (M14 melanoma) [µM] | TGI (MDA-MB-231 breast) [µM] | TGI (MDA-N) [µM] | TGI (SF-295 CNS) [µM] | TGI (SK-MEL-28 melanoma) [µM] | TGI (T-47D breast) [µM] | TGI (SR leukemia) [µM] | GI50 (A498 renal) [µM] | GI50 (COLO 205 colon) [µM] | GI50 (HOP-62 NSCLC) [µM] | GI50 (SF-295 CNS) [µM] | GI50 (SK-MEL-28 melanoma) [µM] | GI50 (M14 melanoma) [µM] | GI50 (MDA-MB-231 breast) [µM] | GI50 (T-47D breast) [µM] | GI50 (DU-145 prostate) [µM]
COc1cc(/C=C2\N=C(c3ccccc3)N(c3ccc(C(=O)c4ccccc4)cc3N3C(=O)/C(=C/c4cc(OC)c(OC)c(OC)c4)N=C3c3ccccc3)C2=O)cc(OC)c1OC | 43 | 30 | 40.3 | > 100 | 33.4 | 54 | 14.9 | 55.9 | 65.8 | 26.4 |  |  |  |  |  |  |  |  |  | 
N#Cc1nc(Cc2cccs2)oc1N | > 100 |  | > 100 | > 100 | > 100 | > 100 | > 100 |  | > 100 |  | > 100 |  |  |  |  |  |  |  |  | 
O=c1c2cc(Cl)ccc2n2nnc3ccc(NCCNCCO)c1c32 | 2.86 | 2.68 | 8.91 | 3.03 | 2.88 | 2.81 | 2.32 | 1.38 | 3.26 | 7.52 |  |  |  |  |  |  |  |  |  | 
CC(C)(CN1CCCCC1)C(=O)CC(SCCS(=O)(=O)O)c1ccc(Cl)c(Cl)c1 (centres undefined) | 12.9 | 7.25 | 23.4 | 18.7 | 3.8 | 4.82 | 8.4 | 15.8 |  |  | 6.38 |  |  |  |  |  |  |  |  | 
Nc1ncc(Cc2nn3c(COc4ccc(Cl)cc4)nnc3s2)s1 |  | > 100 | > 100 | > 100 | > 100 | > 100 |  | > 100 | > 100 | > 100 | > 100 |  |  |  |  |  |  |  |  | 
C=C1C[C@]23CC[C@@H]4C(CO)(CO)CC(=O)C[C@]4(C)[C@@H]2C(O)C[C@H]1C3 (some centres undefined) |  | > 100 | > 100 | > 100 | > 100 | > 100 | > 100 | > 100 | > 100 |  | > 100 |  |  |  |  |  |  |  |  | 
CC(=O)Nc1oc(C)nc1C#N | > 100 |  | > 100 | > 100 | > 100 | > 100 | > 100 |  | > 100 |  | > 100 |  |  |  |  |  |  |  |  | 
Cn1cnc([N+](=O)[O-])c1Sc1nncc2[nH]cnc12 | > 100 | > 100 |  | > 100 | > 100 | > 100 | > 100 | > 100 | > 100 | > 100 | > 100 |  |  |  |  |  |  |  |  | 
C=C1C(=O)OC2C1CC1OC2C(C)CCC/C(C)=C\CCC1(C)O (centres undefined) | 60.3 | 58.1 |  | > 65.9 |  |  |  | 85.2 | 43.1 |  |  |  |  |  |  |  |  |  |  | 
CC1Oc2c(c(O)cc3oc(=O)cc(-c4ccccc4)c23)C(=O)C1C (centres undefined) | > 100 | > 100 |  |  | > 100 |  |  | > 100 | > 100 |  |  |  |  |  |  |  |  |  |  | 
NC(=S)NS(=O)(=O)c1ccc(Cl)cc1Cl |  | > 100 | > 100 | > 100 | > 100 | > 100 | > 100 | > 100 | > 100 | > 100 |  |  |  |  |  |  |  |  |  | 
Cc1ccc(N=Nc2cc(=O)[nH]c(=O)[nH]2)cc1C | 36.9 | 19.9 | 27.9 | 43.1 | 41.1 | 24.2 | 24.7 | 28.7 | 34.3 |  | > 100 |  |  |  |  |  |  |  |  | 
O=C1C(=O)C(CCCO)(CCCO)CCCCCCCCC1(CCCO)CCCO | > 100 | > 100 | > 100 | > 100 | > 100 |  | > 100 | > 100 | > 100 | > 100 | > 100 |  |  |  |  |  |  |  |  | 
O.O=[Se](=O)(O)O.[NH-]C1CCCCC1[NH-].[Pt+2] (centres undefined) | 97 | 67.8 |  | > 100 |  |  |  | > 92.1 | > 100 |  |  | 19.4 | 5.82 | 37.5 | 15.4 | 10.1 |  |  |  | 
C#Cc1ccccc1C(=O)OC | > 100 | > 100 |  | > 100 | > 100 |  |  | > 100 | > 100 |  | > 100 |  |  |  |  |  |  |  |  | 
COc1cc(/C=C/C=C2\CC(C)C/C(=C\C=C\c3ccc(O)c(OC)c3)C2=O)ccc1O (centres undefined) |  | > 100 | > 100 | 37.8 | 46.9 | 32.4 |  |  | 45.5 | > 100 | 91.4 |  |  |  |  |  |  |  |  | 
CC[N+]1(C)CCC(O)(/C=C/c2ccc(Cl)c(Cl)c2)C(C(=O)/C=C/c2ccc(Cl)c(Cl)c2)C1 (centres undefined) | 7.12 | 10.2 | 6.87 | 6.8 | > 23.3 |  |  | 13.9 | 4.37 | 4.87 | > 22.7 |  |  |  |  |  |  |  |  | 
O=c1oc2ccccc2cc1-c1nc2ccccc2s1 | 29.4 |  | 43.7 | 17.8 | > 47.6 | 27.6 | > 61.1 |  | > 66 |  | > 100 |  |  |  |  |  |  |  |  | 

SMILES | TGI (A498 renal) [µM] | TGI (COLO 205 colon) [µM] | TGI (DU-145 prostate) [µM] | TGI (HOP-62 NSCLC) [µM] | TGI (M14 melanoma) [µM] | TGI (MDA-MB-231 breast) [µM] | TGI (MDA-N) [µM] | TGI (SF-295 CNS) [µM] | TGI (SK-MEL-28 melanoma) [µM] | TGI (T-47D breast) [µM] | TGI (SR leukemia) [µM] | GI50 (A498 renal) [µM] | GI50 (COLO 205 colon) [µM] | GI50 (HOP-62 NSCLC) [µM] | GI50 (SF-295 CNS) [µM] | GI50 (SK-MEL-28 melanoma) [µM] | GI50 (M14 melanoma) [µM] | GI50 (MDA-MB-231 breast) [µM] | GI50 (T-47D breast) [µM] | GI50 (DU-145 prostate) [µM]
COC(=O)C1CC(C=O)=C(SC)N1 (centres undefined) | > 50 | > 50 | > 50 | > 50 | > 50 | > 50 | > 50 | > 50 | > 50 |  |  |  |  |  |  |  |  |  |  | 
CCCCCCCCCC[C@@H](O)[C@H]1CC[C@@H]([C@H]2CC[C@H]([C@H](O)CCCCCCCCCC[C@@H]3CC(CC(C)=O)C(=O)O3)O2)O1 (some centres undefined) | 97 | 32.2 |  | 72.2 | 50.4 | > 100 |  | > 100 | > 100 | 69.4 |  |  | 15.6 | 19.1 | 0.483 | 29 | 20 | 22.8 | 2.99 | 
Cc1cc(=O)[nH]c(S(=O)(=O)NC(=S)Nc2ccc(Br)cc2)n1 | > 100 | > 100 | > 100 | > 100 | > 100 | > 100 |  | > 100 | > 100 | > 100 |  |  |  |  |  |  |  |  |  | 
Cc1cccc(-c2cc(=O)c3c(C)ccnc3[nH]2)c1 | > 100 | 2.68 | > 100 | > 100 | > 100 | > 100 |  |  | > 100 | > 100 |  |  |  |  |  |  |  |  |  | 
O=C1/C(=C/c2ccc(Cl)c(Cl)c2)CN(C(=O)CCN2CCOCC2)C/C1=C\c1ccc(Cl)c(Cl)c1 |  |  | 0.148 |  |  | 0.00591 | 0.0441 |  |  |  |  |  |  |  |  |  |  |  |  | 
COc1cccc2c1C(=O)c1c(O)c3c(c(O)c1C2=O)C[C@](O)(C(=O)CO)CC3OC1CC(N)C(OC2CCCCO2)C(C)O1 (some centres undefined) | 0.766 | 2.61 |  | 1.7 |  |  |  | 0.672 | 3.38 |  |  |  |  |  |  |  |  |  |  | 
CC(C)=CCC/C(C)=C/CCC1(C)C2COC(=O)C21 (centres undefined) | > 100 | > 100 | > 100 | > 100 |  | > 100 | > 100 | > 100 | > 100 |  | > 100 |  |  |  |  |  |  |  |  | 
C=C(Cl)C(=C)CCC(Cl)C(C)(C)Cl (centres undefined) | > 100 | > 100 | > 100 | > 100 | > 100 | > 100 | > 100 | > 100 | > 100 |  | > 100 |  |  |  |  |  |  |  |  | 
Cc1ccc(Oc2cc(C)ccc2P(=O)(O)O)cc1 |  | > 100 | > 100 | > 100 | > 100 | > 100 | > 100 | > 100 | > 100 |  |  |  |  |  |  |  |  |  |  | 
c1csc(-c2csc(-c3cccs3)c2)c1 | > 100 | 32.8 | > 100 | > 100 | > 100 | > 100 |  | > 100 | > 100 | > 100 | 66.8 |  |  |  |  |  |  |  |  | 
CCOC(=O)Cn1c(C)nc2nn(Cc3ccccc3)cc2c1=O | > 100 |  | > 100 | > 100 | > 100 | > 100 | > 100 | > 100 | > 100 | > 100 |  |  |  |  |  |  |  |  |  | 
O=C(O)C1(Cc2ccc3c(c2)CCC3)Cc2cc3c(cc2C1)CCC3 | > 100 | > 100 | > 100 |  | > 100 |  | > 100 |  | > 100 |  | > 100 |  |  |  |  |  |  |  |  | 
COc1ccc(N2C(=O)CSC2c2cc(OC)c(OC)c(OC)c2)cc1 (centres undefined) | 55.3 | 54.1 | 72.2 |  | 57.8 | 78.1 | 55.9 | 71.9 | > 100 |  | 51.3 |  |  |  |  |  |  |  |  | 
Brc1ccc2[nH]cc(-c3nc(-c4c[nH]c5ccncc45)cs3)c2c1 | 3.22 |  | 3.07 |  | 3.42 | 2.95 |  | 3.14 | 3.13 |  |  | 1.81 |  |  | 1.71 | 1.73 | 1.83 | 1.52 |  | 1.68
COc1ccc(/C(Cl)=C(\C=O)c2ccc(Cl)cc2)cc1 | 74 |  |  | 53.6 | > 100 |  |  | 19.1 |  |  | 6.7 |  |  |  |  |  |  |  |  | 
CCCCC[C@@H]1OC(=O)[C@@]2(CC3c4ccccc4C2c2ccccc23)[C@H]1C(=O)OC | 82.5 | 30.5 | > 100 | > 100 | > 100 | > 100 | > 100 | > 100 |  |  | > 100 |  |  |  |  |  |  |  |  | 
C=CC(=O)N1C/C(=C\c2ccc(F)cc2)C(=O)/C(=C/c2ccc(F)cc2)C1 | 1.48 | 1.81 | 13.5 | 1.41 | 1.38 |  |  | 1.2 |  | 39.7 | > 100 |  |  |  |  |  |  |  |  | 
